Reference: patent US20100261694A1 (priority 2009, published 2010)
Read-outs that look alike come from different tables or passages of the source.

What was measured:
[1] = tested on: Physcomitrella patens gametophore cells; type: cell-based; conditions: for Tunicamycin induced cell death: moss, co-treatment 100 μM chaperone with 10 μg/ml tunicamycin, 72h
[2] = tested on: Triticum aestivum leaf segments; type: cell-based; conditions: for Tunicamycin induced cell death: wheat, co-treatment 100 μM chaperone with 10 μg/ml tunicamycin, 72h
F. graminearum [3] = type: in vivo, Fusarium graminearum; conditions: 100 μM chaperone; for Proliferation of F. graminearum on host tissue (GFP-tagged fungal cells, PCR): moss tissues; for Cell death markers (chlorosis, TUNEL-positive nuclei, Evans Blue staining, ROS induction) by the fungal pathogen: moss
F. graminearum [4] = type: in vivo, Fusarium graminearum; conditions: 100 μM chaperone; for Proliferation of F. graminearum on host tissue (GFP-tagged fungal cells, PCR): wheat tissues; for Cell death markers (chlorosis, TUNEL-positive nuclei, Evans Blue staining, ROS induction) by the fungal pathogen: wheat
Fusarium graminearum = type: in vivo; conditions: 100 μM chaperone; 10 days postinoculation
F. graminearum [5] = type: cell-based, Fusarium graminearum; conditions: 100 μM; rich solid medium, no host

Compound | Cell death (Evans Blue staining) compared to untreated control [1] | Cell death (Evans Blue staining) compared to untreated control [2] | Tunicamycin induced cell death [1] | Tunicamycin induced cell death [2] | Proliferation of F. graminearum on host tissue (GFP-tagged fungal cells, PCR) (F. graminearum [3]) | Cell death markers (chlorosis, TUNEL-positive nuclei, Evans Blue staining, ROS induction) by the fungal pathogen (F. graminearum [3]) | Proliferation of F. graminearum on host tissue (GFP-tagged fungal cells, PCR) (F. graminearum [4]) | Cell death markers (chlorosis, TUNEL-positive nuclei, Evans Blue staining, ROS induction) by the fungal pathogen (F. graminearum [4]) | Fungal growth on inoculated wheat seeds (Fusarium graminearum) | Fungal growth and reproduction on solid growth medium (F. graminearum [5])
Tunicamycin | more cell death | more cell death |  |  |  |  |  |  |  | 
C[C@H](CCC(=O)NCCS(=O)(=O)O)[C@H]1CC[C@H]2[C@@H]3[C@@H](O)C[C@@H]4C[C@H](O)CC[C@]4(C)[C@H]3CC[C@]12C [TUDCA, tauroursodeoxycholic acid] |  |  | attenuated | attenuated | significantly suppress | attenuated | significantly suppress | attenuated | suppression of fungal growth | did not affect fungal growth and reproduction
O=C(O)CCCc1ccccc1 [PBA, 4-phenylbutyric acid] |  |  | attenuated | attenuated | significantly suppress | attenuated | significantly suppress | attenuated | suppression of fungal growth | did not affect fungal growth and reproduction
